Where a SMILES comes first, the peptide text is derived from it. The star is where a group is joined. 5FAM = O=C1OC2(c3ccc(O)cc3Oc3cc(O)ccc32)c2ccc(C(=O)*)cc21
Test: In vitro metabolism test of fluorescein-labeled peptides in liver extract solution (HPLC)
Format: in vitro ADME
Settings: liver extract solution (supernatant of liver homogenate), mouse liver extract solution, 37° C., read-out: residual ratio of unchanged peptide in liver extract solution
Description: To compare the degree of improved stability observed in [C]K004K, an experiment system that uses a fluorescent pigment as a tracer instead of an isotope labeling for in vitro evaluation using a mouse liver homogenate was produced.
Add two parts of Hanks' solution to one part of mouse liver, and homogenize ↓ Centrifuge and collect supernatant ↓ Add five parts of Hanks' solution (liver extract solution) ↓ Add 5 μL of peptide to 245 μL of liver extract solution ↓
↓ Take 50 μL of sample 0, 5, 30, 60, and 120 minutes after incubation ↓ Add 200 μL, of 70% ethanol (pre-cooled at −30° C.) and then vortex ↓ Add 500 μL of chloroform (pre-cooled at −30° C.) and then vigorously vortex ↓ Centrifuge and collect supernatant ↓ Add an equivalent amount of DMF and then vortex ↓ Centrifuge and collect supernatant ↓ HPLC analysis using Co-sense
[C](Flu)-C004C: A peptide cyclized by adding C to both ends of the 004 sequence and forming a disulfide bond between them was labeled with fluorescein at its N-terminus. [C](Flu)-K004C: A peptide cyclized by adding K to the N terminus and C to the C terminus of the 004 sequence and forming a peptide bond between the N- and C-termini was labeled with fluorescein at its N terminus. [C](Flu)-K004K: A peptide cyclized by adding K to both ends of the 004 sequence and forming a peptide bond between the N- and C-termini was labeled with fluorescein at its N terminus. […]

## CC(C)C[C@@H]1NC(=O)[C@H](Cc2c[nH]cn2)NC(=O)[C@H](CCCNC(=N)N)NC(=O)[C@H](C(C)C)NC(=O)[C@H](C(C)C)NC(=O)[C@H](CCCCNC(=O)c2ccc3c(c2)C(=O)OC32c3ccc(O)cc3Oc3cc(O)ccc32)NC(=O)[C@H](CS)NC(=O)[C@H](CCC(N)=O)NC(=O)[C@H](CCC(N)=O)NC1=O [[C](Flu)-K004C, reference compound] (cyclo(K(5FAM)VVRHLQQC))
Five minutes
  remaining at 5 min: 40%

## CC(C)C[C@@H]1NC(=O)[C@H](Cc2c[nH]cn2)NC(=O)[C@H](CCCNC(=N)N)NC(=O)[C@H](C(C)C)NC(=O)[C@H](C(C)C)NC(=O)[C@H](CCCCNC(=O)c2ccc3c(c2)C(=O)OC32c3ccc(O)cc3Oc3cc(O)ccc32)NC(=O)[C@H](CCCCN)NC(=O)[C@H](CCC(N)=O)NC(=O)[C@H](CCC(N)=O)NC1=O [[C](Flu)-K004K] (cyclo(K(5FAM)VVRHLQQK))
60-minute incubation
  remaining at 1 h: ~50%
